# Measured values reported in article PMC7501296, “Rapid and direct control of target protein levels with VHL-recruiting dTAG molecules” (Nature Communications, 2020).
# Values joined by “and” are separate entries in the source; they are usually repeats but may differ in a detail not shown here. Identical values can stand only once.
# Key:
# Format in all cases: cell-based
# [1] = biological target: T1, FKBP12^WT-Nluc (Homo sapiens, UniProt P62942); test: FKBP12WT-Nluc dual luciferase assay (293FT); conditions: 293FT FKBP12WT-Nluc, 24 h
# T1 construct: expressed in transfected cells; host or cells: 293FT
# T1 sequence (P62942 2-108 limits assumed): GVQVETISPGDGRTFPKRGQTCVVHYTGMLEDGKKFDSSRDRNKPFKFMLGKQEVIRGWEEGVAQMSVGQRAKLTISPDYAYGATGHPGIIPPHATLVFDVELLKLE
# Experimental: (§1) Dual luciferase assays were performed using 293FT FKBP12^WT-Nluc and FKBP12^F36V-Nluc cells. In brief, cells were plated at 2000 cells per well in 20 µL of appropriate media in 384-well white culture plates (Corning), allowed to adhere overnight, and 100 nL of compounds were added using a Janus Workstation pin tool (PerkinElmer) for 24 h at 37 °C. To evaluate Fluc signal, plates were brought to room temperature, 20 µL of Dual-Glo Reagent (Promega) was added for 10 min and luminescence was measured on an Envision 2104 plate reader (PerkinElmer). Subsequently, 20 µL of Dual-Glo Stop & Glo Reagent (Promega) was added for 10 min and luminescence was again measured to capture Nluc signal. DMSO-normalized ratios of Nluc/Fluc signal was analyzed and plotted using GraphPad PRISM v8[6].
# [2] = tested on: PATU-8902 LACZ-FKBP12^F36V clone; test: Antiproliferation, PATU-8902 LACZ-FKBP12F36V clone, 3D-spheroid (CellTiter-Glo)
# Experimental: (§2) Cell viability was assayed in 2D-adherent or ultra-low adherent 3D-spheroids using CellTiter-Glo (Promega)[6],[15]. Luminescence was measured on an Envision 2104 plate reader (PerkinElmer) and Fluostar Omega Reader (BMG Labtech) and data was analyzed using GraphPad PRISM v8. Synergy assessments were performed using CellTiter-Glo (Promega) with the following modifications to the protocol described in the ref. [34]. In brief, EWS502 cells were plated at 1000 cells per well in 50 µL of appropriate media in 384-well white culture plates (Corning) allowed to adhere overnight, and 100 nL of compounds were added using a Janus Workstation pin tool (PerkinElmer) for 72 h. Cell viability was measured by addition of 10 µL of CellTiter-glo (Promega), followed by incubation for 15 minutes at room temperature. Luminescence was measured on an Envision 2104 plate reader (PerkinElmer) and data was analyzed using GraphPad PRISM v8.
# [3] = tested on: PATU-8902 FKBP12^F36V-KRAS^G12V; KRAS^-/- clone; test: Antiproliferation, PATU-8902 FKBP12F36V-KRASG12V; KRAS-/- clone, 2D-monolayer (CellTiter-Glo)
# Experimental: as §2
# [4] = biological target: T2, FKBP12^F36V-Nluc (Homo sapiens, UniProt P62942, F37V); test: FKBP12F36V-Nluc dual luciferase assay (293FT); conditions: 293FT FKBP12F36V-Nluc, 24 h
# T2 construct: expressed in transfected cells; host or cells: 293FT
# T2 sequence (P62942 2-108 F37V limits assumed): as the sequence (P62942 2-108 limits assumed) above, with F36V counted along it
# Experimental: as §1
# [5] = tested on: PATU-8902 FKBP12^F36V-KRAS^G12V; KRAS^-/- clone; test: Antiproliferation, PATU-8902 FKBP12F36V-KRASG12V; KRAS-/- clone, 3D-spheroid (CellTiter-Glo); conditions: FKBP12F36V-KRASG12V, KRAS-/-, 3D-spheroid, replicate values
# Experimental: as §2
# [6] = tested on: PATU-8902 LACZ-FKBP12^F36V clone; test: Antiproliferation, PATU-8902 LACZ-FKBP12F36V clone, 2D-monolayer (CellTiter-Glo)
# Experimental: as §2
# [7] = log10[compound] (M) -5.30103, single replicates
# [8] = log10[compound] (M) -5.80103, single replicates
# [9] = log10[compound] (M) -6.30103, single replicates
# [10] = log10[compound] (M) -6.80103, single replicates
# [11] = log10[compound] (M) -7.30103, single replicates
# [12] = log10[compound] (M) -7.80103, single replicates
# [13] = log10[compound] (M) -8.30103, single replicates
# [14] = log10[compound] (M) -8.80103, single replicates
# [15] = log10[compound] (M) -9.30103, single replicates
# [16] = log10[compound] (M) -9.80103, single replicates
# [17] = log10[compound] (M) -5.69897, replicate values
# [18] = log10[compound] (M) -6.19897, replicate values
# [19] = log10[compound] (M) -6.69897, replicate values
# [20] = log10[compound] (M) -7.19897, replicate values
# [21] = log10[compound] (M) -7.69897, replicate values
# [22] = log10[compound] (M) -8.19897, replicate values
# [23] = log10[compound] (M) -8.69897, replicate values
# [24] = log10[compound] (M) -9.19897, replicate values
# [25] = log10[compound] (M) -9.69897, replicate values
# [26] = log10[compound] (M) -10.199, replicate values
smiles,measurement,setting,value
CC[C@H](C(=O)N1CCCC[C@H]1C(=O)O[C@H](CCc1ccc(OC)c(OC)c1)c1ccccc1OCC(=O)NCCCCCCCCNc1ccc2c(c1)C(=O)N(C1CCCNC1=O)C2=O)c1cc(OC)c(OC)c(OC)c1 (stereo partly drawn) [dTAG-47-NEG],DMSO-normalized ratio of Nluc/Fluc signal,[1]; [7],112.983 and 133.743 and 109.836 and 118.552
same,DMSO-normalized ratio of Nluc/Fluc signal,[1]; [8],88.6495 and 108.291 and 97.1172 and 97.9891
same,DMSO-normalized ratio of Nluc/Fluc signal,[1]; [9],84.7288 and 98.5773 and 69.8656 and 85.4355
same,DMSO-normalized ratio of Nluc/Fluc signal,[1]; [10],111.882 and 117.981 and 82.1602 and 97.6002
same,DMSO-normalized ratio of Nluc/Fluc signal,[1]; [11],80.9372 and 116.345 and 96.4274 and 100.006
same,DMSO-normalized ratio of Nluc/Fluc signal,[1]; [12],91.8268 and 107.899 and 89.5705 and 101.339
same,DMSO-normalized ratio of Nluc/Fluc signal,[1]; [13],96.8786 and 106.696 and 109.119 and 135.476
same,DMSO-normalized ratio of Nluc/Fluc signal,[1]; [14],100.791 and 113.508 and 74.3676 and 105.961
same,DMSO-normalized ratio of Nluc/Fluc signal,[1]; [15],140.604 and 140.668 and 98.5907 and 115.954
same,DMSO-normalized ratio of Nluc/Fluc signal,[1]; [16],87.4488 and 119.502 and 82.5871 and 99.1801
same,DMSO-normalized antiproliferation,[2]; [17],97.4751 and 103.304 and 87.3281 and 98.4167
same,DMSO-normalized antiproliferation,[2]; [18],115.352 and 92.3949 and 111.46 and 98.7799
same,DMSO-normalized antiproliferation,[2]; [19],115.675 and 135.633 and 120.527 and 101.762
same,DMSO-normalized antiproliferation,[2]; [20],132.781 and 104.479 and 141.691 and 94.0763
same,DMSO-normalized antiproliferation,[2]; [21],113.77 and 136.938 and 126.087 and 111.72
same,DMSO-normalized antiproliferation,[2]; [22],141.265 and 116.402 and 127.835 and 120.491
same,DMSO-normalized antiproliferation,[2]; [23],117.15 and 123.8 and 115.155 and 128.638
same,DMSO-normalized antiproliferation,[2]; [24],109.537 and 110.734 and 119.818 and 124.491
same,DMSO-normalized antiproliferation,[2]; [25],101.506 and 115.774 and 112.487 and 105.932
same,DMSO-normalized antiproliferation,[2]; [26],91.3412 and 111.541 and 123.365 and 101.901
same,DMSO-normalized antiproliferation,[3]; [17],74.7022 and 73.4799 and 58.8574 and 61.1381
same,DMSO-normalized antiproliferation,[3]; [18],87.1466 and 90.577 and 94.4269 and 106.738
same,DMSO-normalized antiproliferation,[3]; [19],79.5247 and 86.4598 and 105.965 and 87.3723
same,DMSO-normalized antiproliferation,[3]; [20],125.17 and 98.7432 and 116.205 and 122.113
same,DMSO-normalized antiproliferation,[3]; [21],90.1708 and 148.45 and 111.91 and 91.8745
same,DMSO-normalized antiproliferation,[3]; [22],119.425 and 116.853 and 127.987 and 145.045
same,DMSO-normalized antiproliferation,[3]; [23],87.2626 and 88.668 and 110.555 and 114.959
same,DMSO-normalized antiproliferation,[3]; [24],135.954 and 152.721 and 117.778 and 94.3712
same,DMSO-normalized antiproliferation,[3]; [25],100.893 and 117.34 and 101.502 and 86.7015
same,DMSO-normalized antiproliferation,[3]; [26],99.6176 and 90.8045 and 95.2889 and 85.7881
same,DMSO-normalized ratio of Nluc/Fluc signal,[4]; [7],107.204 and 133.65 and 125.111 and 106.713
same,DMSO-normalized ratio of Nluc/Fluc signal,[4]; [8],105.202 and 100.221 and 87.7709 and 98.1806
same,DMSO-normalized ratio of Nluc/Fluc signal,[4]; [9],114.516 and 112.689 and 63.1557 and 96.6176
same,DMSO-normalized ratio of Nluc/Fluc signal,[4]; [10],115.914 and 94.4993 and 79.2868 and 83.2258
same,DMSO-normalized ratio of Nluc/Fluc signal,[4]; [11],95.8358 and 90.9039 and 76.6637 and 114.52
same,DMSO-normalized ratio of Nluc/Fluc signal,[4]; [12],93.9184 and 139.979 and 82.2221 and 91.2143
same,DMSO-normalized ratio of Nluc/Fluc signal,[4]; [13],91.746 and 110.613 and 89.992 and 115.75
same,DMSO-normalized ratio of Nluc/Fluc signal,[4]; [14],108.43 and 84.8167 and 129.223 and 114.161
same,DMSO-normalized ratio of Nluc/Fluc signal,[4]; [15],128.159 and 120.38 and 100.065 and 103.942
same,DMSO-normalized ratio of Nluc/Fluc signal,[4]; [16],95.5174 and 90.4935 and 78.1755 and 112.193
same,DMSO-normalized antiproliferation,[5]; log10[compound] (M) -5.69897,82.482 and 87.6886 and 103.208 and 99.4884
same,DMSO-normalized antiproliferation,[5]; log10[compound] (M) -6.19897,113.805 and 93.9254 and 98.397 and 96.9436
same,DMSO-normalized antiproliferation,[5]; log10[compound] (M) -6.69897,123.227 and 117.041 and 133.19 and 118.656
same,DMSO-normalized antiproliferation,[5]; log10[compound] (M) -7.19897,81.3571 and 110.96 and 121.028 and 111.088
same,DMSO-normalized antiproliferation,[5]; log10[compound] (M) -7.69897,122.42 and 111.862 and 100.29 and 122.927
same,DMSO-normalized antiproliferation,[5]; log10[compound] (M) -8.19897,142.5 and 118.093 and 120.226 and 127.732
same,DMSO-normalized antiproliferation,[5]; log10[compound] (M) -8.69897,121.028 and 116.139 and 119.196 and 128.785
same,DMSO-normalized antiproliferation,[5]; log10[compound] (M) -9.19897,130.238 and 109.673 and 113.755 and 125.733
same,DMSO-normalized antiproliferation,[5]; log10[compound] (M) -9.69897,131.246 and 139.231 and 145.63 and 98.1297
same,DMSO-normalized antiproliferation,[5]; log10[compound] (M) -10.199,85.3442 and 82.6434 and 122.826 and 96.2419
same,DMSO-normalized antiproliferation,[6]; [17],66.1984 and 57.9546 and 80.6556 and 62.9228
same,DMSO-normalized antiproliferation,[6]; [18],65.6828 and 85.4625 and 78.6518 and 76.5663
same,DMSO-normalized antiproliferation,[6]; [19],102.61 and 78.6871 and 110.55 and 102.23
same,DMSO-normalized antiproliferation,[6]; [20],104.837 and 92.9898 and 109.382 and 132.676
same,DMSO-normalized antiproliferation,[6]; [21],141.282 and 157.373 and 114.442 and 100.315
same,DMSO-normalized antiproliferation,[6]; [22],95.0388 and 126.489 and 147.158 and 156.144
same,DMSO-normalized antiproliferation,[6]; [23],96.771 and 104.289 and 112.53 and 88.7912
same,DMSO-normalized antiproliferation,[6]; [24],117.441 and 113.828 and 97.736 and 88.8651
same,DMSO-normalized antiproliferation,[6]; [25],104.694 and 108.624 and 153.334 and 121.648
same,DMSO-normalized antiproliferation,[6]; [26],108.17 and 124.096 and 109.419 and 107.694
